{
  "source": "patent US20180360964A1",
  "about": "“PHARMACEUTICAL COMPOSITION AND A METHOD FOR PRODUCING THEREOF” (priority 2017, published 2018)",
  "key": {"[1]": {"experiment": "Interaction efficiency of drugs with apatite-based matrix (HPLC)", "assay_type": "physicochemical", "set-up": "concentration or dose not given beside the values", "conditions": "for Interaction efficiency (%) of each drug with apatite-based matrix: Table 1, mean±SD, triplicate", "method": "Apatite-based matrix as prepared above was allowed to interact with three types of drugs including cyclophosphamide (Cyp), methotrexate (Mtx) and 5-fluorouracil (5-FU) to form complexes. The complexes were then centrifuged at 13,000 rpm for 15 min and supernatant was discarded without disturbing the pellet. 100 μL of media was added to pellet to form a suspension and the suspension was used to perform high performance liquid chromatography (HPLC) analysis to estimate the concentration of drugs that could be adsorbed to the apatite-based matrix and also to evaluate the interaction efficiency of drugs with apatite-based matrix. The concentration of the drugs present in the supernatant was calculated from the peak area, using the standard curves. Data were represented as interaction efficiency (%) of drugs with apatite-based matrix, calculated using the following formula: […]\nWhere [X]free drug and [X]CA-drug are the concentrations of free drug and drug-loaded apatite-based matrix in the supernatant calculated form the standard curves and [X]initial is the total concentration of drugs used to perform HPLC or the total concentration initially mixed for preparation of apatite-drug formulations. Each experiment was done in triplicate and shown as mean±SD.\n(7) Ca^2+ and Sr^2+ Effects of Ca^2+ and Sr^2+ on apatite-based matrix formation were analysed by adding exogenous CaCl2 and SrCl2 in apatite-based matrix fabrication respectively, while keeping other salts being constant. The size of the apatite-based matrix formed with exogenous CaCl2 and SrCl2 were measured, followed by evaluation on the interaction efficiency (%) of apatite-based matrix with drugs which is indicated in Table 2."}, "[2]": {"experiment": "Cellular uptake of Dox-loaded CA NPs and CMCA NPs", "assay_type": "cell-based", "source_text": "Further, the interaction between CMCA NP and the drug i.e. doxorubicin (denoted briefly as Dox) was studied by comparing the size and binding affinity of CA NP and CMCA NP that were loaded with Dox. The positively charged DOX might bind electrostatically with negatively charged domains (rich in bicarbonate, phosphate or citrate) on CMCA NP and CA NP, causing the net charge of the DOX-loaded CMCA NPs and CA NPs more electropositive than that of the free NPs, as shown in FIGS. 28 (b) and (d). […] In addition, the evaluation on cellular uptake of Dox-loaded CA NPs and CMCA NPs was performed after 1 hour and 4 hours of treatment."}, "MCF7 cell line": {"tested_on": "MCF7 cell line", "experiment": "Time-dependent cellular uptake by HPLC", "assay_type": "cell-based", "method": "HPLC was performed to determine time-dependent cellular uptake (%) of pharmaceutical composition and also drug-loaded unmodified apatite-based matrix in MCF7 cell line. Apatite-based matrix was formulated with different Ca^2+ concentrations (7 mM, 8 mM and 9 mM) and 20 uM of drug. Free drug (20 uM) was used as control."}, "[3]": {"experiment": "Concentration of detected drug accumulated in tumour after intravenous delivery", "assay_type": "in vivo, mouse", "conditions": "gemcitabine accumulated in tumour, 4T1-induced breast tumour mice", "method": "4T1 cells were inoculated subcutaneously on the mammary pad of mice. […] The injections were intravenously administered twice within an interval of 3 days to a 4T1 cancer cells-induced syngeneic mouse model of breast cancer. Measurements on tumour volume at day 8, 10, 12, 14, 16, 18, 20 and 22 were taken. The concentration of detected drug in tumour were also measured, followed by observation on bio-distribution of drugs in each organ. Six mice per group were used and data were represented as mean±SD of tumour volume."}},
  "data": [
    {"smiles": "O=c1[nH]cc(F)c(=O)[nH]1", "note": "[5-FU, 5-fluorouracil]", "values": [
      {"measurement": "Interaction efficiency (%) of each drug with apatite-based matrix", "setting": "[1]", "value": 0, "unit": "%"},
      {"measurement": "Interaction efficiency (%) of each drug with apatite-based matrix", "setting": "[1]; listed as 5-fluorouracil (5-FU)", "value": "did not show any affinity"},
      {"measurement": "Interaction efficiency (%) of each drug with the apatite-based matrix", "setting": "[1]; matrix formed with CaCl2", "value": 0, "unit": "%"},
      {"measurement": "Interaction efficiency (%) of each drug with the apatite-based matrix", "setting": "[1]; matrix formed with SrCl2", "value": "1.21 ± 0.56", "unit": "%"}
    ]},
    {"smiles": "O=P1(N(CCCl)CCCl)NCCCO1", "note": "(stereo not drawn) [Cyp, cyclophosphamide]", "values": [
      {"measurement": "Interaction efficiency (%) of each drug with apatite-based matrix", "setting": "[1]", "value": "13.10 ± 5.47", "unit": "%"},
      {"measurement": "Interaction efficiency (%) of each drug with the apatite-based matrix", "setting": "[1]; matrix formed with CaCl2", "value": "13.10 ± 5.47", "unit": "%"},
      {"measurement": "Interaction efficiency (%) of each drug with the apatite-based matrix", "setting": "[1]; matrix formed with SrCl2", "value": "11.19 ± 8.16", "unit": "%"}
    ]},
    {"smiles": "COc1cccc2c1C(=O)c1c(O)c3c(c(O)c1C2=O)C[C@@](O)(C(=O)CO)C[C@@H]3O[C@H]1C[C@H](N)[C@H](O)[C@H](C)O1", "note": "[DOX, doxorubicin]", "values": [
      {"measurement": "% Cellular uptake 1 hour of treatment", "setting": "[2]; DOX 1 μM", "value": "22.4% ± 1.73"},
      {"measurement": "% Cellular uptake 4 hours of treatment", "setting": "[2]; DOX 1 μM", "value": "31.71% ± 5.92"},
      {"measurement": "% Cellular uptake 1 hour of treatment", "setting": "[2]; DOX 5 μM", "value": "24.75% ± 0.14"},
      {"measurement": "% Cellular uptake 4 hours of treatment", "setting": "[2]; DOX 5 μM", "value": "32.07% ± 0.82"}
    ]},
    {"smiles": "CC(C)(C#N)c1cc(Cn2cncn2)cc(C(C)(C)C#N)c1", "note": "[Free anastrozole, anastrozole]", "values": [
      {"measurement": "cellular uptake (%)", "setting": "MCF7 cell line; anastrozole 20 uM, 1 h", "value": "18.5% ± 2.4"},
      {"measurement": "cellular uptake (%)", "setting": "MCF7 cell line; anastrozole 20 uM, 4 h", "value": "47.75% ± 2.3"},
      {"measurement": "cellular uptake (%)", "setting": "MCF7 cell line; anastrozole 20 uM, 24 h", "value": "89.5% ± 3"}
    ]},
    {"smiles": "Nc1ccn([C@@H]2O[C@H](CO)[C@@H](O)C2(F)F)c(=O)n1", "note": "[Free gemcitabine, gemcitabine]", "values": [
      {"measurement": "cellular uptake (%)", "setting": "MCF7 cell line; gemcitabine 20 uM, 1 h", "value": "30.5% ± 1.2"},
      {"measurement": "cellular uptake (%)", "setting": "MCF7 cell line; gemcitabine 20 uM, 4 h", "value": "50.75% ± 2.3"},
      {"measurement": "cellular uptake (%)", "setting": "MCF7 cell line; gemcitabine 20 uM, 24 h", "value": 100, "unit": "%"},
      {"measurement": "Detected Drug Concentration (ng/ml)", "setting": "[3]", "value": "27,03333 ng/ml"}
    ]},
    {"smiles": "CN(Cc1cnc2nc(N)nc(N)c2n1)c1ccc(C(=O)N[C@@H](CCC(=O)O)C(=O)O)cc1", "note": "[Mtx, methotrexate]", "values": [
      {"measurement": "Interaction efficiency (%) of each drug with apatite-based matrix", "setting": "[1]", "value": "1.73 ± 0.85", "unit": "%"},
      {"measurement": "Interaction efficiency (%) of each drug with the apatite-based matrix", "setting": "[1]; matrix formed with CaCl2", "value": "1.73 ± 0.85", "unit": "%"},
      {"measurement": "Interaction efficiency (%) of each drug with the apatite-based matrix", "setting": "[1]; matrix formed with SrCl2", "value": "27.76 ± 5.62", "unit": "%"}
    ]}
  ]
}
